In patent publication US20220119354A1, “DIAMINO-SUBSTITUTED PYRIDINES AND PYRIMIDINES AS HERBICIDES” (FMC Corporation, priority 2019, published 2022):

Key:
Type in all cases: in vivo
[1] = tested on: ragweed (common ragweed, Ambrosia elatior); assay: Test A preemergence, ragweed; settings: 0 to 100 scale; for Ragweed plant response rating: 125 g ai/ha, 0 is no effect, 100 is complete control; for Plant response rating, Ragweed: 500 g ai/ha
Outline: (§1)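 Seeds sown in loam–sand blend received a directed soil spray of test chemical in non-phytotoxic solvent with surfactant (preemergence); postemergence plants at 2–10 cm, one- to two-leaf stage, were sprayed with the same formulation. Injury rated visually versus untreated controls after ~10 d in greenhouse, 0–100 scale.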

[2] = tested on: kochia (Kochia scoparia); assay: Test A preemergence, kochia; settings: 0 to 100 scale; for Kochia plant response rating: 125 g ai/ha, 0 is no effect, 100 is complete control; for Plant response rating, Kochia: 500 g ai/ha
Outline: as §1

[3] = tested on: rice (Oryza sativa); assay: Test B flooded paddy test, rice; settings: Flood, 250 g ai/ha, applied to paddy water, 2-leaf stage, visual evaluation after 13 to 15 d
Outline: (§2)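 Application was made into paddy water of pots flooded 3 cm deep at treatment, with seedlings at the 2-leaf stage. That flood level was kept throughout, and plants stayed under glass 13 to 15 d before visual assessment on a 0–100 control scale.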

[4] = tested on: barnyardgrass (Echinochloa crus-galli); assay: Test B flooded paddy test, barnyardgrass; settings: Flood, 250 g ai/ha, applied to paddy water, 2-leaf stage, visual evaluation after 13 to 15 d
Outline: as §2

[5] = tested on: foxtail, giant (Setaria faberii); assay: Test A preemergence, giant foxtail; settings: 0 to 100 scale; for Foxtail, Giant plant response rating: 125 g ai/ha, 0 is no effect, 100 is complete control; for Plant response rating, Foxtail, Giant: 500 g ai/ha
Outline: as §1

[6] = tested on: kochia (Kochia scoparia); assay: Test A postemergence, kochia; settings: 0 to 100 scale
Outline: as §1

[7] = tested on: barnyardgrass (Echinochloa crus-galli); assay: Test A postemergence, barnyardgrass; settings: 0 to 100 scale
Outline: as §1

[8] = tested on: pigweed (Amaranthus retroflexus); assay: Test A postemergence, pigweed; settings: 0 to 100 scale
Outline: as §1

[9] = tested on: galium (catchweed bedstraw, Galium aparine); assay: Test A postemergence, galium; settings: 0 to 100 scale
Outline: as §1

[10] = tested on: sedge, umbrella (small-flower umbrella sedge, Cyperus difformis); assay: Test B flooded paddy test, umbrella sedge; settings: Flood, 250 g ai/ha, applied to paddy water, 2-leaf stage, visual evaluation after 13 to 15 d
Outline: as §2

[11] = tested on: blackgrass (Alopecurus myosuroides); assay: Test A postemergence, blackgrass; settings: 0 to 100 scale
Outline: as §1

[12] = tested on: ducksalad (Heteranthera limosa); assay: Test B flooded paddy test, ducksalad; settings: Flood, 250 g ai/ha, applied to paddy water, 2-leaf stage, visual evaluation after 13 to 15 d
Outline: as §2

[13] = tested on: ryegrass, Italian (Lolium multiflorum); assay: Test A preemergence, Italian ryegrass; settings: 0 to 100 scale; for Ryegrass, Italian plant response rating: 125 g ai/ha, 0 is no effect, 100 is complete control; for Plant response rating, Ryegrass, Italian: 500 g ai/ha
Outline: as §1

[14] = tested on: ryegrass, Italian (Lolium multiflorum); assay: Test A postemergence, Italian ryegrass; settings: 0 to 100 scale
Outline: as §1

[15] = tested on: ragweed (common ragweed, Ambrosia elatior); assay: Test A postemergence, ragweed; settings: 0 to 100 scale
Outline: as §1

[16] = tested on: barnyardgrass (Echinochloa crus-galli); assay: Test A preemergence, barnyardgrass; settings: 0 to 100 scale; for Barnyardgrass plant response rating: 125 g ai/ha, 0 is no effect, 100 is complete control; for Plant response rating, Barnyardgrass: 500 g ai/ha
Outline: as §1

[17] = tested on: foxtail, giant (Setaria faberii); assay: Test A postemergence, giant foxtail; settings: 0 to 100 scale
Outline: as §1

[18] = tested on: pigweed (Amaranthus retroflexus); assay: Test A preemergence, pigweed; settings: 0 to 100 scale; for Pigweed plant response rating: 125 g ai/ha, 0 is no effect, 100 is complete control; for Plant response rating, Pigweed: 500 g ai/ha
Outline: as §1

[19] = tested on: wheat (Triticum aestivum); assay: Test A postemergence, wheat; settings: 0 to 100 scale
Outline: as §1

[20] = tested on: corn (Zea mays); assay: Test A postemergence, corn; settings: 0 to 100 scale
Outline: as §1

Structure (SMILES)	Ragweed plant response rating [1]	Plant response rating, Ragweed [1]	Kochia plant response rating [2]	Plant response rating, Kochia [2]	Plant response rating, Rice (0 to 100 scale, 0 is no effect, 100 is complete control) [3]	Plant response rating, Barnyardgrass (0 to 100 scale, 0 is no effect, 100 is complete control) [4]	Plant response rating, Foxtail, Giant [5]	Plant response rating, Kochia ([6]; 125 g ai/ha)	Plant response rating, Kochia ([6]; 500 g ai/ha)	Plant response rating, Barnyardgrass ([7]; 125 g ai/ha)	Plant response rating, Barnyardgrass ([7]; 500 g ai/ha)	Plant response rating, Pigweed ([8]; 125 g ai/ha)	Plant response rating, Pigweed ([8]; 500 g ai/ha)	Plant response rating, Galium ([9]; 125 g ai/ha)	Plant response rating, Galium ([9]; 500 g ai/ha)	Plant response rating, Sedge, Umbrella (0 to 100 scale, 0 is no effect, 100 is complete control) [10]	Plant response rating, Blackgrass ([11]; 125 g ai/ha)	Plant response rating, Blackgrass ([11]; 500 g ai/ha)	Plant response rating, Ducksalad (0 to 100 scale, 0 is no effect, 100 is complete control) [12]	Ryegrass, Italian plant response rating [13]	further results
CC(COc1cc(F)c(F)c(F)c1)Nc1ncc(C(F)(F)F)c(N)n1 (centres unmarked) [Compound 36]	0	0	70	30	0	0	0	0	0	0	0	0	0	0	0	0	0	0	0	0	Foxtail, Giant plant response rating [5]: 0; Plant response rating, Ryegrass, Italian [13]: 0; Plant response rating, Ryegrass, Italian ([14]; 125 g ai/ha): 0; Plant response rating, Ryegrass, Italian ([14]; 500 g ai/ha): 0; Plant response rating, Ragweed ([15]; 125 g ai/ha): 0; Plant response rating, Ragweed ([15]; 500 g ai/ha): 0; Barnyardgrass plant response rating [16]: 0; Plant response rating, Barnyardgrass [16]: 0; Plant response rating, Foxtail, Giant ([17]; 125 g ai/ha): 0; Plant response rating, Foxtail, Giant ([17]; 500 g ai/ha): 0; Pigweed plant response rating [18]: 0; Plant response rating, Pigweed [18]: 0; Plant response rating, Wheat ([19]; 125 g ai/ha): 0; Plant response rating, Wheat ([19]; 500 g ai/ha): 0; Plant response rating, Corn ([20]; 125 g ai/ha): 10; Plant response rating, Corn ([20]; 500 g ai/ha): 0
CC(COc1cccc(F)c1)Nc1ncc(C(F)(F)F)c(N)n1 (centres unmarked) [Compound 37]	0	100	0	0	0	0	0	0	0	0	0	0	40	20	40	0	0	0	0	0	Foxtail, Giant plant response rating [5]: 0; Plant response rating, Ryegrass, Italian [13]: 0; Plant response rating, Ryegrass, Italian ([14]; 125 g ai/ha): 0; Plant response rating, Ryegrass, Italian ([14]; 500 g ai/ha): 0; Plant response rating, Ragweed ([15]; 125 g ai/ha): 0; Plant response rating, Ragweed ([15]; 500 g ai/ha): 0; Barnyardgrass plant response rating [16]: 0; Plant response rating, Barnyardgrass [16]: 0; Plant response rating, Foxtail, Giant ([17]; 125 g ai/ha): 0; Plant response rating, Foxtail, Giant ([17]; 500 g ai/ha): 0; Pigweed plant response rating [18]: 50; Plant response rating, Pigweed [18]: 70; Plant response rating, Wheat ([19]; 125 g ai/ha): 0; Plant response rating, Wheat ([19]; 500 g ai/ha): 0; Plant response rating, Corn ([20]; 125 g ai/ha): 0; Plant response rating, Corn ([20]; 500 g ai/ha): 0
Cc1cc(F)cc(OCC(C)Nc2ncc(C(F)(F)F)c(N)n2)c1 (centres unmarked) [Compound 39]	70	100	0	80	0	0	90	40	70	0	0	20	60	70	70	0	0	0	0	0	Plant response rating, Ryegrass, Italian [13]: 10; Plant response rating, Ryegrass, Italian ([14]; 125 g ai/ha): 0; Plant response rating, Ryegrass, Italian ([14]; 500 g ai/ha): 50; Plant response rating, Ragweed ([15]; 125 g ai/ha): 0; Plant response rating, Ragweed ([15]; 500 g ai/ha): 40; Barnyardgrass plant response rating [16]: 40; Plant response rating, Barnyardgrass [16]: 90; Plant response rating, Foxtail, Giant ([17]; 125 g ai/ha): 0; Plant response rating, Foxtail, Giant ([17]; 500 g ai/ha): 10; Pigweed plant response rating [18]: 70; Plant response rating, Pigweed [18]: 80; Plant response rating, Wheat ([19]; 125 g ai/ha): 0; Plant response rating, Wheat ([19]; 500 g ai/ha): 0; Plant response rating, Corn ([20]; 125 g ai/ha): 10; Plant response rating, Corn ([20]; 500 g ai/ha): 20
CC(Nc1ncc(C(F)(F)F)c(N)n1)c1csc2ccccc12 (centres unmarked) [Compound 40]	90	100	60	60	0	20	90	50	90	0	60	80	100	60	90	40	0	10	20	20	Foxtail, Giant plant response rating [5]: 10; Plant response rating, Ryegrass, Italian [13]: 100; Plant response rating, Ryegrass, Italian ([14]; 125 g ai/ha): 30; Plant response rating, Ryegrass, Italian ([14]; 500 g ai/ha): 0; Plant response rating, Ragweed ([15]; 125 g ai/ha): 30; Plant response rating, Ragweed ([15]; 500 g ai/ha): 60; Barnyardgrass plant response rating [16]: 30; Plant response rating, Barnyardgrass [16]: 80; Plant response rating, Foxtail, Giant ([17]; 125 g ai/ha): 0; Plant response rating, Foxtail, Giant ([17]; 500 g ai/ha): 20; Pigweed plant response rating [18]: 100; Plant response rating, Pigweed [18]: 100; Plant response rating, Wheat ([19]; 125 g ai/ha): 0; Plant response rating, Wheat ([19]; 500 g ai/ha): 0; Plant response rating, Corn ([20]; 125 g ai/ha): 0; Plant response rating, Corn ([20]; 500 g ai/ha): 10
